In article PMC9657696, “Novel BH4-BCL-2 Domain Antagonists Induce BCL-2-Mediated Apoptosis in Triple-Negative Breast Cancer” (Cancers, 2022):
Where two headings read alike, the source gives them in different places.

Key:
[1] = system: MDA-MB-231 xenografts; assay: MDA-MB-231 xenograft in athymic mice; format: in vivo
Method: Mice were sheltered in the animal facility of Sri Ramachandra Medical College and Research Institute (Chennai, India), which has been certified as a pathogen-free animal house for performing mice experiments. All the methods were carried out according to the IAEC guidelines and regulations. Experimental procedures were framed and approved by the Institutional Animal Ethical Committee (IAEC) (IAEC approval number: IAEC/57/SRIHER/639/2019). The entire study was in accordance with the ARRIVE guidelines to ensure the safety of the animals. The sizes of the mice groups were chosen in accordance with statistical significance; the measurements and analysis were performed in an unbiased manner.
4–6 week-old female athymic mice were transplanted with MDA-MB-231 triple-negative breast tumor cells. The growth media with MDA-MB-231 cells and Matrigel (BD Biosciences) at a 1:1 ratio was mixed and injected into mice. The tumor lengths and widths were measured with an electronic caliper 2–3 times a week. The tumor volume was calculated using the formula: (length × width^2)/2. All of the mice were randomized after 10 days, as the tumor volume reached approximately 80–90 mm^3. A total of 25 mice were sorted into 5 treatment groups, followed by a compound treatment (SM216, SM396, SM949, and ABT199) or vehicle (n = 5 for each group). The drug compounds were formulated in PBS and administrated as i.p doses (100 mg/Kg w) for two schedules per week. Tumor growth inhibition (TGImax) was calculated using the following equation: (1) Tumor Growth Inhibition =1−mean of volume of treated at day x−mean of volume treated at day 0/mean of volume of control at day x−mean of volume of control at day 0×100
As the tumor size exceeded 600 mm^3, we euthanized the mice for ethical reasons. The euthanasia procedure used was carbon dioxide asphyxiation followed by cervical dislocation. The mean of the tumor volume ± SEM for different time points was represented until we sacrificed at least one mouse in a group.
To test the in vivo anti-cancer efficacy of the novel small molecules viz. SM216, SM396, and SM949, 4–6 weeks old female athymic mice were xenografted with MDA-MB-231 cells on the mammary fat pads and palpable tumors were induced. […] Tumor volumes were measured at regular intervals and the data were tabulated. […] The growth kinetics and maximal tumor growth inhibition (TGImax) are depicted as tumor volumes (five groups of mice treated with different drugs) in Figure 6e,f. The average tumor volume for all groups on day 0 of treatment was 92.77 mm^3. We observed that all three lead molecules inhibited tumor growth efficiently compared to the vehicle control. […] These compounds achieved regression of 60% after 20 days of treatment. […] Moreover, these compounds were well tolerated with no weight loss and hemolysis in all treatment groups. The survival was 100% for all treatment mice groups until the termination of the study. […] A decrease in the expression of PCNA was observed upon treatment with SM396 compared to the vehicle control.

[2] = system: BT549 cells; assay: MTT cell viability assay, BT549; format: cell-based; conditions: Homo sapiens
Method: An MTT (3-(4,5-dimethylthiazol-2-yl)-2,5-diphenyltetrazolium bromide)-based colorimetric assay was performed to measure the cell viability. On a 96-well plate, cells were seeded at a density of 3000–5000 cells/well. The cell number for the assay was decided based on the exponential growth of untreated cells. The cells were treated with compounds for 72 h followed by incubation with MTT for 4 h at 37 °C. The formazan crystals were dissolved in DMSO and absorbance was measured at 540 nm. The percentage viability was calculated as % cell viability = (OD treated cells/OD control cells) × 100, and the IC50 was estimated by curve-fitting using the non-linear regression of a dose–response curve. The experiments were repeated at least two to three times.
The top 29 lead molecules, guided by the in silico results, were subjected to further in vitro validation by assessing the cellular cytotoxicity in both cancer (Figure 3a) and normal cell lines (Supplementary Figure S2a) using the MTT assay. Moreover, we performed MTT (Supplementary Figure S3c) and Annexin V assays on an additional cell line, BT549, a triple-negative breast cancer model, to validate the activity of the compounds (Supplementary Figure S4). […] We also provided the AUC plots for the top three compounds for a better understanding of the activity (Supplementary Figure S5). […]

## CC1(C)CCC(CN2CCN(c3ccc(C(=O)NS(=O)(=O)c4ccc(NCC5CCOCC5)c([N+](=O)[O-])c4)c(Oc4cnc5[nH]ccc5c4)c3)CC2)=C(c2ccc(Cl)cc2)C1 [ABT-199, venetoclax]
[1]; Day 0, i.p. 100 mg/kg, two schedules per week
  Tumor Volume, Mean: 95.35 mm^3
[1]; Day 6, i.p. 100 mg/kg
  Tumor Volume, Mean: 162.15 mm^3
[1]; Day 9, i.p. 100 mg/kg (column head printed SEM)
  Tumor Volume, Mean: 313.94 mm^3
[1]; Day 13, i.p. 100 mg/kg
  Tumor Volume, Mean: 313.03 mm^3
[1]; Day 15, upon 4 doses, i.p. 100 mg/kg
  Tumor Volume, Mean: 371.94 mm^3
[1]; Day 17, i.p. 100 mg/kg
  Tumor Volume, Mean: 424.83 mm^3
[1]; Day 20, i.p. 100 mg/kg
  Tumor Volume, Mean: 382.6 mm^3
[2]; BT-549, Supplementary Figure S3c legend, read-out: IC50 (dose-response curve fitting)
  IC50: 7.19 µM
[2]; BT-549, read-out: IC50 (non-linear regression of dose-response curves)
  IC50: 7.2 µM
